Assay results published in patent publication US12077503B2, “Substituted cyclic amides and their use as herbicides” (FMC CORPORATION, priority 2015, dated 2024).

Experiments:
Format in all cases: in vivo
[1] = system: Kochia (Kochia scoparia); assay: Test A preemergence
Summary of the method: (§1)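 Treatment is preemergence as a directed soil spray after planting, or postemergence at the one- to two-leaf stage, with test chemical in a non-phytotoxic solvent mixture plus surfactant. Plants stay in the greenhouse about 10 d before visual injury scoring on a 0 to 100 scale versus untreated controls.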

[2] = system: barnyardgrass (Echinochloa crus-galli); assay: Test A preemergence
Summary of the method: as §1

[3] = system: ryegrass, Italian (Italian ryegrass, Lolium multiflorum); assay: Test A preemergence
Summary of the method: as §1

[4] = system: giant foxtail (Setaria faberii); assay: Test A preemergence
Summary of the method: as §1

[5] = system: pigweed (Amaranthus retroflexus); assay: Test A preemergence
[6] = system: ragweed (common ragweed, Ambrosia elatior); assay: Test A preemergence
Summary of the method: as §1

[7] = system: sedge, umbrella (small-flower umbrella sedge, Cyperus difformis); assay: Test B flooded paddy test; settings: Flood, 250 g ai/ha; 0 to 100 scale where 0 is no effect and 100 is complete control; 13 to 15 d
Summary of the method: (§2)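 Percent control, visually estimated after 13–15 d in the greenhouse on a 0–100 basis, compares treated pots with untreated ones; compound was put into paddy water 3 cm above the soil when plants had two leaves.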

[8] = system: barnyardgrass (Echinochloa crus-galli); assay: Test B flooded paddy test; settings: Flood, 250 g ai/ha; 0 to 100 scale where 0 is no effect and 100 is complete control; 13 to 15 d
Summary of the method: as §2

[9] = system: ducksalad (Heteranthera limosa); assay: Test B flooded paddy test; settings: Flood, 250 g ai/ha; 0 to 100 scale where 0 is no effect and 100 is complete control; 13 to 15 d
Summary of the method: as §2

[10] = system: rice (Oryra sativa); assay: Test B flooded paddy test; settings: Flood, 250 g ai/ha; 0 to 100 scale where 0 is no effect and 100 is complete control; 13 to 15 d
Summary of the method: as §2

[11] = system: Kochia (Kochia scoparia); assay: Test A postemergence
Summary of the method: as §1

[12] = system: barnyardgrass (Echinochloa crus-galli); assay: Test A postemergence
Summary of the method: as §1

[13] = system: ryegrass, Italian (Italian ryegrass, Lolium multiflorum); assay: Test A postemergence
Summary of the method: as §1

[14] = system: wheat (Triticum aestivum); assay: Test A postemergence
Summary of the method: as §1

[15] = system: giant foxtail (Setaria faberii); assay: Test A postemergence
Summary of the method: as §1

[16] = system: pigweed (Amaranthus retroflexus); assay: Test A postemergence
Summary of the method: as §1

[17] = system: blackgrass (Alopecurus myosuroides); assay: Test A postemergence
Summary of the method: as §1

[18] = system: ragweed (common ragweed, Ambrosia elatior); assay: Test A postemergence
Summary of the method: as §1

[19] = system: corn (Zea mays); assay: Test A postemergence
Summary of the method: as §1

[20] = system: Galium (catchweed bedstraw, Galium aparine); assay: Test A postemergence
Summary of the method: as §1

[21] = 125 g ai/ha, Preemergence, visual injury after approximately 10 d, 0 to 100 scale where 0 is no effect and 100 is complete control
[22] = 500 g ai/ha, preemergence, 0 to 100 scale, 0 = no effect, 100 = complete control
[23] = 125 g ai/ha, postemergence, visual rating after approx. 10 d, 0 to 100 scale (0 no effect, 100 complete control)
[24] = Postemergence, 500 g ai/ha, 0 to 100 scale where 0 is no effect and 100 is complete control
[25] = 125 g ai/ha, preemergence, 0 to 100 scale (0 no effect, 100 complete control)
[26] = Preemergence, 500 g ai/ha, 0 is no effect, 100 is complete control
[27] = 125 g ai/ha, postemergence, visual injury rating on 0 to 100 scale (0 no effect, 100 complete control), approx. 10 d
[28] = 500 g ai/ha, postemergence, 0 to 100 scale, 0 no effect, 100 complete control
[29] = Postemergence, 125 g ai/ha, visual injury, 0 to 100 scale (0 no effect, 100 complete control), approx. 10 d

## O=C1NCC(c2cc(F)c(F)cc2F)C1C(=O)Nc1ccc(F)c(F)c1F (stereo not drawn) [Compound 614]
[1]; [21]
  Plant response rating, Kochia: 0
[1]; [22]
  Plant response rating, Kochia: 20
[2]; [21]
  Plant response rating, Barnyardgrass: 50
[2]; [22]
  Plant response rating, Barnyardgrass: 90
[3]; [21]
  Plant response rating, Ryegrass, Italian: 0
[3]; [22]
  Plant response rating, Ryegrass, Italian: 20
[4]; [21]
  Plant response rating, Foxtail, Giant: 90
[4]; [22]
  Plant response rating, Foxtail, Giant: 90
[5]; [21]
  Plant response rating, Pigweed: 0
[5]; [22]
  Plant response rating, Pigweed: 0
[6]; [21]
  Plant response rating, Ragweed: 0
[6]; [22]
  Plant response rating, Ragweed: 0
[7]
  Plant response rating, Sedge, Umbrella: 0
[8]
  Plant response rating, Barnyardgrass: 65
[9]
  Plant response rating, Ducksalad: 100
[10]
  Plant response rating, Rice: 10
[11]; [23]
  Plant response rating, Kochia: 0
[11]; [24]
  Plant response rating, Kochia: 50
[12]; [23]
  Plant response rating, Barnyardgrass: 80
[12]; [24]
  Plant response rating, Barnyardgrass: 90
[13]; [23]
  Plant response rating, Ryegrass, Italian: 0
[13]; [24]
  Plant response rating, Ryegrass, Italian: 20
[14]; [23]
  Plant response rating, Wheat: 0
[14]; [24]
  Plant response rating, Wheat: 40
[15]; [23]
  Plant response rating, Foxtail, Giant: 80
[15]; [24]
  Plant response rating, Foxtail, Giant: 90
[16]; [23]
  Plant response rating, Pigweed: 0
[16]; [24]
  Plant response rating, Pigweed: 30
[17]; [23]
  Plant response rating, Blackgrass: 30
[17]; [24]
  Plant response rating, Blackgrass: 70
[18]; [23]
  Plant response rating, Ragweed: 0
[18]; [24]
  Plant response rating, Ragweed: 0
[19]; [23]
  Plant response rating, Corn: 0
[19]; [24]
  Plant response rating, Corn: 20
[20]; [23]
  Plant response rating, Galium: 30
[20]; [24]
  Plant response rating, Galium: 40

## COc1cccc(C2CNC(=O)C2C(=O)Nc2cccc(F)c2F)c1 (racemic) [Compound 383]
[1]; [25]
  Plant response rating, Kochia: 0
[1]; [26]
  Kochia plant response rating (0 to 100 scale): 20
[2]; [25]
  Plant response rating, Barnyardgrass: 50
[2]; [26]
  Barnyardgrass plant response rating (0 to 100 scale): 90
[3]; [25]
  Plant response rating, Ryegrass, Italian: 0
[3]; [26]
  Ryegrass, Italian plant response rating (0 to 100 scale): 20
[4]; [25]
  Plant response rating, Foxtail, Giant: 50
[4]; [26]
  Foxtail, Giant plant response rating (0 to 100 scale): 70
[5]; [25]
  Plant response rating, Pigweed: 0
[5]; [26]
  Pigweed plant response rating (0 to 100 scale): 0
[6]; [25]
  Plant response rating, Ragweed: 0
[6]; [26]
  Ragweed plant response rating (0 to 100 scale): 0
[7]
  Plant response rating, Sedge, Umbrella: 0
[8]
  Plant response rating, Barnyardgrass: 0
[9]
  Plant response rating, Ducksalad: 30
[10]
  Plant response rating, Rice: 0
[11]; [27]
  Kochia plant response rating: 0
[11]; [28]
  Plant response rating, Kochia: 30
[12]; [28]
  Plant response rating, Barnyardgrass: 90
[12]; [29]
  Plant response rating, Barnyardgrass: 70
[13]; [27]
  Ryegrass, Italian plant response rating: 20
[13]; [28]
  Plant response rating, Ryegrass, Italian: 30
[14]; [27]
  Wheat plant response rating: 0
[14]; [28]
  Plant response rating, Wheat: 0
[15]; [27]
  Foxtail, Giant plant response rating: 30
[15]; [28]
  Plant response rating, Foxtail, Giant: 50
[16]; [27]
  Pigweed plant response rating: 0
[16]; [28]
  Plant response rating, Pigweed: 0
[17]; [28]
  Plant response rating, Blackgrass: 0
[17]; [29]
  Plant response rating, Blackgrass: 0
[18]; [27]
  Ragweed plant response rating: 0
[18]; [28]
  Plant response rating, Ragweed: 20
[19]; [27]
  Corn plant response rating: 0
[19]; [28]
  Plant response rating, Corn: 0
[20]; [27]
  Galium plant response rating: 0
[20]; [28]
  Plant response rating, Galium: 0
